Measured values: patent publication US20190225670A1, “COMPOUNDS AND METHODS FOR ACTIVATING TIE2 SIGNALING” (ASCLEPIX THERAPEUTICS, LLC, priority 2016, published 2019)

Tests used:
Tie2 = assay: Triton X-100 fractionation of MEC lysates, Tie2; format: cell-based, human
Experimental: Tie2 at EC-EC junctions form actin-rich complexes that are insoluble in Triton X-100-based lysis buffers but are soluble when distributed over the surface of the cell. Therefore, MEC monolayers were treated with various combinations of AXT107, Ang1, and Ang2 and cell lysates were fractionated by their solubility in Triton X-100-based lysis buffers. Experiments including VEGF 165 were also performed since VEGFR2 signaling often opposes the activities of Tie2. In each experiment, 100 μM AXT107 was used since it provided clear results relative to lower concentrations of AXT107.
Next, experiments were performed to determine whether or not relocation of Tie2 to the insoluble fraction was important for Tie2's activation by Ang2. Tie2 was immunoprecipitated from fractionated MEC lysates exposed to Ang2 with or without AXT107 and then immunoblotted for phospho-Tie2.
The isolation of Triton X-100 soluble and insoluble fractions was performed using modifications to previously-described procedures (see, e.g., Lampugnani et al., J Cell Biol. 1995; 129(1):203-217). FN1-coated six-well plates were seeded with 2.5×10^6 cells and cultured for forty-eight hours, as described above. The cultures were then serum starved for ninety minutes in EBM-2 media, treated with 100 μM AXT107 or DMSO vehicle, and fifteen minutes with 1 mM sodium vanadate. […] Samples were analyzed by western blot as described above. […]

integrin α5β1 = integrin α5β1 (Homo sapiens, UniProt P05556+P08648); conditions: Lee et al., Sci Rep. 2014; cited from earlier work
Chain of integrin α5β1 (P08648 42-1049): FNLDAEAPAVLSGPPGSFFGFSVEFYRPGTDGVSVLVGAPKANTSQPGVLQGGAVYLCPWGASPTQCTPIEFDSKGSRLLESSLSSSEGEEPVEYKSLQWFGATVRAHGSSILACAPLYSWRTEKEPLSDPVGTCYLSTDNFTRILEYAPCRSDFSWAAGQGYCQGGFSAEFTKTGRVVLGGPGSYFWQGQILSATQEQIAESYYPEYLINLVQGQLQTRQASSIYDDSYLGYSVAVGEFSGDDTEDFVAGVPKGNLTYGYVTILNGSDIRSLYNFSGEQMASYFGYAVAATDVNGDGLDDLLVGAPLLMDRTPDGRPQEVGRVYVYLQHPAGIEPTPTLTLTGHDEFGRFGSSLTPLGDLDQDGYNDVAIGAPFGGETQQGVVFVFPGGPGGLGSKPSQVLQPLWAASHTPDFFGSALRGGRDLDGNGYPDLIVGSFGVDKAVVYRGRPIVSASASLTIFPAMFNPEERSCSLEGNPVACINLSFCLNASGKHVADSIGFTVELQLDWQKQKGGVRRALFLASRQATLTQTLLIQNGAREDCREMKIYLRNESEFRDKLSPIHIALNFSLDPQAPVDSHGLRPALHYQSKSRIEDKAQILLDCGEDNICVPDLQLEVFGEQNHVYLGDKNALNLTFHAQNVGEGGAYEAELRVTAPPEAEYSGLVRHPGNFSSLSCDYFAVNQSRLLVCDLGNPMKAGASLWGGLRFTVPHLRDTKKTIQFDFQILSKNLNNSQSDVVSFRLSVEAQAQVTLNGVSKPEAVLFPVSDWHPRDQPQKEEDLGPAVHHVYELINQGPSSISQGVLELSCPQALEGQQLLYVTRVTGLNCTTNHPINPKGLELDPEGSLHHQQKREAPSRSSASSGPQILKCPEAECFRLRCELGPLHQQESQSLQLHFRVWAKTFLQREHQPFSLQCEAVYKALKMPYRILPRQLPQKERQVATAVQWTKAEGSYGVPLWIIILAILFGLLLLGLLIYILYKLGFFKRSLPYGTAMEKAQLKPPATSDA
Chain of integrin α5β1 (P05556 21-798): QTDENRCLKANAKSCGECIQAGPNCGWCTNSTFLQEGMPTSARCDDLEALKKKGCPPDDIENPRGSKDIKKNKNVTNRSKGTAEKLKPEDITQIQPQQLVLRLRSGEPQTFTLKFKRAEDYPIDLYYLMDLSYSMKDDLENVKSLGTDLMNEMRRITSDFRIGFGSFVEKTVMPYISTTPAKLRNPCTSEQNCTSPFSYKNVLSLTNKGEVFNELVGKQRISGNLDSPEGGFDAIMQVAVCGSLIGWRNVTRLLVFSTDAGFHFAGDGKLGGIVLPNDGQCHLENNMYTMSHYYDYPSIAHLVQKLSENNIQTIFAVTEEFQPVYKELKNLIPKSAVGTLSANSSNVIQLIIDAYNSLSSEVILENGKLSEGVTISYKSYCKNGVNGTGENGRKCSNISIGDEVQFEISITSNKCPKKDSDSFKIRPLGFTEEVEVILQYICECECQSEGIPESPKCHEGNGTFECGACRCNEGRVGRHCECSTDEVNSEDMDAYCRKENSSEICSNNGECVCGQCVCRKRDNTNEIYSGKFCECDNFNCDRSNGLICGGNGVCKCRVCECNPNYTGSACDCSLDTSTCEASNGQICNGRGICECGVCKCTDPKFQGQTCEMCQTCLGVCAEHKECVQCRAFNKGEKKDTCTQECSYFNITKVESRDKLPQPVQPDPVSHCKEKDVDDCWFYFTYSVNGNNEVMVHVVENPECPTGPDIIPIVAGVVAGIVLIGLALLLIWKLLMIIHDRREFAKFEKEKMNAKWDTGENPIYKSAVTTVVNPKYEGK

## LRRFSTAPFAFIDINDVINF [AXT107]
Tie2; 100 μM AXT107, independent of growth factor treatment
  amount of Tie2 in Triton X-100 insoluble fraction: increased amounts
Tie2; MEC exposed to Ang2 with or without AXT107
  phospho-Tie2 in fractionated lysates immunoprecipitated for Tie2: observed only in the insoluble fractions of peptide-treated samples
Integrin α5β1
  binding to integrin α5β1: binds tightly
